Values of other authors in patent US10835570B2, “Dietary supplement” (priority 2016, dated 2020).

System: receptors ERb and ERa
Settings: oestrogen-like affinity, ERb versus ERa

For O=c1c(-c2ccc(O)cc2)coc2cc(O)cc(O)c12 [genistein], the “affinity greater for receptors ERb than for receptors ERa” value is listed as 20 times.
